These are literature values, as cited in patent publication US7838544B2, “Heterocyclic inhibitors of 11-β hydroxyl steroid dehydrogenase type 1 and methods of using the same” (Incyte Corporation, priority 2006, dated 2010).

The target of the series is T1, 11βHSD1 in the eye (Homo sapiens, UniProt P28845).
T1 construct: host or cells: eye of healthy volunteers, in vivo (11βHSD1 localized to non-pigmented epithelial cells)
Particulars: healthy volunteers, after seven days of carbenoxolone treatment.

T1 sequence (P28845 whole entry): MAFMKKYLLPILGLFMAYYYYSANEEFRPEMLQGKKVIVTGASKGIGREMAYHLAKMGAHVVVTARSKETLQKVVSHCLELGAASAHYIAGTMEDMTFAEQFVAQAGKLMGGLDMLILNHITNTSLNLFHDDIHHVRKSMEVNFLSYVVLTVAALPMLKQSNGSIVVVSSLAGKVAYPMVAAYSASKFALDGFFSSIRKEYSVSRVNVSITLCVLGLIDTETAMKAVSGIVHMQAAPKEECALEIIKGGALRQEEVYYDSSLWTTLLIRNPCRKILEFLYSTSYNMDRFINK

As for `CC1(C)[C@@H](OC(=O)CCC(=O)O)CC[C@]2(C)[C@H]3C(=O)C=C4[C@@H]5C[C@@](C)(C(=O)O)CC[C@]5(C)CC[C@@]4(C)[C@]3(C)CC[C@@H]12` [carbenoxolone], the “reduction of intra-ocular pressure (IOP)” value was 18%.
